Laboratory results published in patent US20210047278A1, “E3 UBIQUITIN LIGASE AGONISTS, PHARMACEUTICAL COMPOSITIONS INCLUDING THE E3 UBIQUITIN LIGASE AGONISTS, RELATED METHODS OF USE” (FRED HUTCHINSON CANCER RESEARCH CENTER, priority 2018, published 2021).
Like-named read-outs stand apart in the source and are kept apart here.

Experiments:
Type in all cases: binding
pCycE alone = assay: Counterscreen 2 ALPHAscreen with cyclin E phosphopeptide alone (CSRUN2/DCSRUN2); settings: for CyCEP ACT DCSRUN2 Averaged Max % Response: activation relative to WT-FBW7+pCycE, averaged maximum; for EC50: dose-response, triplicate, 10 point 3-fold dilutional series, read-out: CyCEP ACT DCSRUN2 Final EC50
In short: (§1)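 Dose-response in triplicate, 10 points in 3-fold steps with a top concentration near 87 μM. Each counterscreen lacks one partner (FBW7^ARG alone or pCycE alone), giving signal not due to the binding pair. Activity is % activation versus WT-FBW7+pCycE; positive threshold 10%.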

FBW7^ARG+pCycE = target: T1, FBW7^ARG+pCycE (Homo sapiens, UniProt Q969H0, R505L); assay: FBW7^ARG-cyclin E agonist ALPHAscreen (primary PRUN, confirmation CRUN1, dose-response DRUN); settings: for EC50 / Emax: DRUN dose-response; for Emax: relative to WT-FBW7+pCycE, read-out: FBW7 ACT Averaged Max % Response
T1 construct: GST (TEV site and flexible linker) (N, cleaved yes); made in house; host or cells: SF9 insect cells (baculovirus)
In short: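 Compounds tested once at 26.1 μM (primary; confirmation in triplicate) or in a triplicate 10-point 3-fold dilution up to ~87 μM (dose-response). Bridging of 25 nM mutant FBW7 R505L to 25 nM biotinylated phosphorylated cyclin E peptide detected by Ni-acceptor/streptavidin-donor ALPHA signal, normalized to WT-FBW7+pCycE.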

FBW7^ARG (RLFBW7) alone = target: T2, FBW7^ARG (RLFBW7) alone (Homo sapiens, UniProt Q969H0, R505L); assay: Counterscreen 1 ALPHAscreen with FBW7^ARG alone (CSRUN1/DCSRUN1); settings: dose-response counterscreen; for Emax: read-out: RLFBW7 ACT DCSRUN1 Averaged Max % Response
T2 construct: GST (TEV site and flexible linker) (N, cleaved yes); made in house; host or cells: SF9 insect cells (baculovirus)
In short: as §1

[1] = raw curve fit, read-out: FBW7 ACT EC50 Curve Fit Raw, Molar
[2] = triplicate, 10 point 3-fold dilution, max approx. 87 μM, read-out: FBW7 ACT Final EC50, Molar
[3] = confirmation assay, triplicate, single concentration 26.1 μM, read-out: FBW7 ACT CRUN1 Avg % Response and Stdev
[4] = primary screen, 1536-well, 26.1 μM, FBW7^ARG + pCycE degron peptide, high control wt-FBW7+pCycE, read-out: FBW7 ACT PRUN % Response
[5] = raw curve fit, read-out: RLFBW7 ACT DCSRUN1 EC50 Curve Fit Raw
[6] = read-out: RLFBW7 ACT DCSRUN1 Final EC50

T2 sequence (Q969H0 64-707 R505L): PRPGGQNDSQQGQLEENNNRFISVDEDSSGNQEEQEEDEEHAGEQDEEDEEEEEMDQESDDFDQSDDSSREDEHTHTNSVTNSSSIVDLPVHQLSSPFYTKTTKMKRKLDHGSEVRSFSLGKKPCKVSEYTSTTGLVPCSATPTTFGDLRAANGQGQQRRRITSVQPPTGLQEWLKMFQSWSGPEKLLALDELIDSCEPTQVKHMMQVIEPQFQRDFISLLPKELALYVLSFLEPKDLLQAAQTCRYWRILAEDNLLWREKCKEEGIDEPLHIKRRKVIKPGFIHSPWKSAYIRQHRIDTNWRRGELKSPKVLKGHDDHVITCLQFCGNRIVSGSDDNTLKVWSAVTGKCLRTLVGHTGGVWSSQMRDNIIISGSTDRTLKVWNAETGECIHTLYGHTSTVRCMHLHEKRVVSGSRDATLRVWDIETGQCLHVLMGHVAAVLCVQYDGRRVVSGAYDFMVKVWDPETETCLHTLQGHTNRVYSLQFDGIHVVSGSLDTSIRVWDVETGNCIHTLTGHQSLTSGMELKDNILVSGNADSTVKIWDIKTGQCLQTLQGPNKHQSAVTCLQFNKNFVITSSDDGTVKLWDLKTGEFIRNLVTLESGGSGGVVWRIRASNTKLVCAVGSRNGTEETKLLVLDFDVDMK
T2 sequence (P63208 2-163 partner): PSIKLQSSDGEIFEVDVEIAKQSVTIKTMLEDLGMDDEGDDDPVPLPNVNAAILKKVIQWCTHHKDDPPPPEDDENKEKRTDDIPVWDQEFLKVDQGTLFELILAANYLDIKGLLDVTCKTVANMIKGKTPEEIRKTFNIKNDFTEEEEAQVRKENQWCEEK
T1 sequence (Q969H0 64-707 R505L): as the sequence (Q969H0 64-707 R505L) above
T1 sequence (P63208 2-163 partner): as the sequence (P63208 2-163 partner) above

SMILES	CyCEP ACT DCSRUN2 Averaged Max % Response (pCycE alone) [%]	EC50 (pCycE alone) [µM]	EC50 (FBW7^ARG+pCycE; [1]) [µM]	Emax (FBW7^ARG+pCycE) [%]	EC50 (FBW7^ARG+pCycE; [2]) [µM]	activation at 26.1 µM (FBW7^ARG+pCycE; [3]) [%]	activation at 26.1 µM (FBW7^ARG+pCycE; [4]) [%]	EC50 (FBW7^ARG (RLFBW7) alone; [5]) [µM]	Emax (FBW7^ARG (RLFBW7) alone) [%]	EC50 (FBW7^ARG (RLFBW7) alone; [6]) [µM]	RLFBW7 ACT DCSRUN1 Hill Slope (FBW7^ARG (RLFBW7) alone)
Cc1ccc2nc(SCC(=O)Nc3ncc(C)s3)c(C#N)cc2c1 [SR-01000340506-1]	0.24	> 65.3	14.9	10.7	> 65.3	3.87 ± 0.19	3.77	16.2	35.6	> 65.3	
COc1ccc(N2C(=O)CC(SCCN)C2=O)cc1 (centres unmarked) [SR-01000428800-1]	2.47	> 87.4	15.1	9.73	> 87.4	11.2 ± 1.65	2.51	0.0102	1.48	> 87.4	
CCC(C)OC(=O)C1=C(C)NC2=C(C(=O)CC(c3ccc(Cl)cc3)C2)C1c1cccc(Cl)c1 (centres unmarked) [SR-01000422821-1]	0.13	> 45.8	16	9.85	> 45.8	6.44 ± 0.56	1.86	24.1	4.29	> 45.8	
C/C(=N\Nc1cccc(C(F)(F)F)c1)C1CC1 [SR-01000041073-1]	0.22	> 75.4	15.5	26.6	> 75.4	10.7 ± 0.12	3.41	42.4	101	39.8	3.57
CN(C)CCN(C)c1nc([C@H](N)Cc2cccc(F)c2)cc2ccc(-c3cn[nH]c3)cc12.O=C(O)C(F)(F)F [SR-00000006284-1]	0.41	> 16.3	7.2	15.4	> 16.3	7.7 ± 0.45	2.73	2.2	0.27	> 16.3	
CC(=O)Nc1ccc(NC(=O)Cn2cnc3c(cnn3C(C)(C)C)c2=O)cc1 [SR-01000137195-1]	0.27	> 65.3	13.4	15.2	> 65.3	4.47 ± 0.6	4.02	0.0182	0.23	> 65.3	
Cc1nc(C(C)NC(=O)c2cc(COc3ccc(F)cc3F)on2)cs1 (centres unmarked) [SR-01000168282-1]	0.37	> 65.3	2.3	6.52	> 65.3	1.88 ± 0.38	2.02	0.0108	1.75	> 65.3	
CCN(Cc1ccccc1)C(=O)c1cc2c(=O)n3cccc(C)c3nc2n1C [SR-01000140943-1]	0.79	> 65.3	21.5	8.52	> 65.3	2.95 ± 0.31	3.93	4.1	1.56	> 65.3	
COc1ccc(COC(=O)C2=C(C)NC3=C(C(=O)CC(C)(C)C3)C2c2ccccc2)cc1 (centres unmarked) [SR-01000427708-1]	1.77	> 62.2	23.8	8.75	> 62.2	5.27 ± 1.17	2.58	0.0056	1.53	> 62.2	
O=C(NCCCN1CCc2ccccc2C1)Nc1ccc(Br)cc1 [SR-01000123578-1]	0.28	> 65.3	0.255	6.18	> 65.3	2.32 ± 0.39	3.06	0.255	-0.0757	> 65.3	
CC1=C(C(=O)OCc2ccccc2)C(c2cn(-c3ccccc3)nc2-c2ccc(F)cc2)C(C(=O)OCc2ccccc2)=C(C)N1 [SR-01000425637-1]	2.59	> 34.2	0.0034	8.34	> 34.2	4.66 ± 1.07	1.93		1.54	> 34.2	
CC1=C(C(=O)OC2CCCCC2)C(c2ccc(F)cc2)C2=C(CC(c3ccccc3)CC2=O)N1 (centres unmarked) [SR-01000420805-1]	0.22	> 50.8	18.2	10	> 50.8	6.77 ± 1.17	1.92	20.2	3.33	> 50.8	
CCOC(=O)C1CCN(C(=O)Nc2ccc(NC(=O)C3CCN(C(=O)OCC)CC3)cc2)CC1 [SR-01000451467-1]	2.82	> 45.3	9.6	15.5	> 45.3	5.81 ± 0.4	6.08	0.0074	1.76	> 45.3	
CCN(CC)c1ccc2c(c1)OC(N)=C(C#N)C2c1ccccc1 (centres unmarked) [SR-01000320053-1]	0.22	> 65.3	31.4	13.7	> 65.3	2.14 ± 0.69	3.43	75.4	6.24	> 65.3	
